Activity calls are given as the source filed them. No cut-off for these calls is given here.
How the values were obtained:
[1] = Induction of apoptosis in human HepG2 cells assessed as upregulation of caspase3 mRNA level at 1 uM incubated for 24 hrs by RT-PCR analysis in presence of polyphyllin I; type: functional, cell-based
HepG2 [2] = assay: Induction of cytochrome c release in human HepG2 cells by Western blot analysis in presence of polyphyllin I; type: functional, cell-based
[3] = Induction of apoptosis in human HepG2 cells assessed as upregulation of Bax level at 1 uM incubated for 24 hrs by Western blot analysis in presence of polyphyllin I; type: functional, cell-based
HepG2 [4] = assay: Induction of chromatin compaction in human HepG2 cells at 1 uM after 24 hrs by Hoechst 33258 staining-based fluorescence microscopic analysis; type: functional, cell-based
HepG2 [5] = assay: Induction mitochondrial membrane potential changes in human HepG2 cells at 1 uM after 24 hrs by rhodamine 123 staining-based flow cytometry in presence of polyphyllin I (reference value: 23.8+/-2.3%); type: functional
HepG2 [6] = assay: Induction of Bax translocation from cytosol to mitochondria in human HepG2 cells by Western blot analysis; type: functional, cell-based
HepG2 [7] = assay: Decrease in CDK2 level in human HepG2 cells at 1 uM incubated for 24 hrs by Western blot analysis in presence of polyphyllin relative to relative to polyphyllin I alone treatment; type: functional, cell-based
HepG2 [8] = assay: Induction of apoptosis in human HepG2 cells assessed as downregulation of NF-kappaB […] level at 1 uM incubated for 24 hrs by RT-PCR analysis in presence of polyphyllin I; type: functional, cell-based
HepG2 [9] = assay: Induction of cytochrome c release in human HepG2 cells by Western blot analysis; type: functional, cell-based
[10] = Cytotoxicity against human HepG2 cells assessed as combination index at ED75 using 1:1 compound to polyphyllin I incubated for 24 hrs by MTT assay; type: functional
HepG2 [11] = assay: Induction of apoptosis in human HepG2 cells at 1 uM after 24 hrs by propidium iodide staining-based flow cytometry(reference value: 3.01%); type: functional
HepG2 [12] = assay: Increase in p21 level in human HepG2 cells at 1 uM incubated for 24 hrs by Western blot analysis in presence of polyphyllin I; type: functional, cell-based
[13] = Cytotoxicity against human Bel7402 cells after 24 hrs by MTT assay; type: functional, cell-based; conditions: Bel-7402, 24 h
[14] = Cell cycle arrest in human HepG2 cells assessed as accumulation at G1 phase at 1 uM after 24 hrs by propidium iodide staining-based flow cytometry(reference value: 55.62%); type: functional
HepG2 [15] = assay: Increase in p21 mRNA level in human HepG2 cells at 1 uM incubated for 24 hrs by RT-PCR analysis in presence of polyphyllin I relative to formosanin C alone treatment; type: functional, cell-based
HepG2 [16] = assay: Antimigratory activity in human HepG2 cells at 1 uM after 24 hrs by wound healing assay in presence of polyphyllin I; type: functional, cell-based
HepG2 [17] = assay: Decrease in CDK2 level in human HepG2 cells at 1 uM incubated for 24 hrs by Western blot analysis in presence of polyphyllin I; type: functional, cell-based
[18] = Cytotoxicity against human Bel7402 cells assessed as combination index at ED30 using 1:1 compound to polyphyllin I incubated for 24 hrs by MTT assay; type: functional, Bel-7402
HepG2 [19] = assay: Decrease in cyclin E mRNA level in human HepG2 cells at 1 uM incubated for 24 hrs by RT-PCR analysis in presence of polyphyllin I relative to formosanin C alone treatment; type: functional, cell-based
[20] = Suppression of MMP9 expression in human HepG2 cells at 1 uM after 24 hrs by Western blot analysis in presence of polyphyllin I; type: functional, cell-based
[21] = Suppression of MMP9 expression in human HepG2 cells assessed as reduction in enzyme activity at 1 uM after 24 hrs by zymographic analysis in presence of polyphyllin I; type: functional, cell-based
[22] = Cell cycle arrest in human HepG2 cells assessed as accumulation at S phase at 1 uM after 24 hrs by […] staining-based flow cytometry in presence of PPI (reference value: 42.33%); type: functional
HepG2 [23] = assay: Induction mitochondrial membrane potential changes in human HepG2 cells at 1 uM after 24 hrs by rhodamine 123 staining-based flow cytometry (reference value: 23.8+/-2.3%); type: functional
HepG2 [24] = assay: Induction of apoptosis in human HepG2 cells at 1 uM after 24 hrs by propidium iodide staining-based flow cytometry in presence of PPI (reference value: 3.01%); type: functional
[25] = Induction of apoptosis in human HepG2 cells assessed as upregulation of caspase3 level at 1 uM incubated for 24 hrs by Western blot analysis in presence of polyphyllin I; type: functional, cell-based
HepG2 [26] = assay: Induction of nuclear fragmentation in human HepG2 cells at 1 uM after 24 hrs by Hoechst 33258 staining-based fluorescence microscopic analysis; type: functional, cell-based
[27] = Cytotoxicity against human Bel7402 cells assessed as combination index at ED90 using 1:1 compound to polyphyllin I incubated for 24 hrs by MTT assay; type: functional, Bel-7402
HepG2 [28] = assay: Induction of chromatin compaction in human HepG2 cells at 0.5 uM after 24 hrs by Hoechst 33258 staining-based fluorescence microscopic analysis in presence of polyphyllin I; type: functional, cell-based
[29] = Cytotoxicity against human HepG2 cells after 24 hrs by MTT assay; type: functional, cell-based; conditions: HepG2, 24 h
[30] = Cytotoxicity against human HepG2 cells assessed as combination index at ED50 using 1:1 compound to polyphyllin I incubated for 24 hrs by MTT assay; type: functional
HepG2 [31] = assay: Induction of apoptosis in human HepG2 cells assessed as downregulation of Bcl2 mRNA level at 1 uM incubated for 24 hrs by RT-PCR analysis in presence of polyphyllin I; type: functional, cell-based
[32] = Induction of apoptosis in human HepG2 cells assessed as upregulation of Bax mRNA level at 1 uM incubated for 24 hrs by RT-PCR analysis in presence of polyphyllin I; type: functional, cell-based
[33] = Cell cycle arrest in human HepG2 cells assessed as accumulation at G2 phase at 1 uM after 24 hrs by propidium iodide staining-based flow cytometry in presence of PPI (reference value: 2.04%); type: functional
HepG2 [34] = assay: Decrease in cyclin E level in human HepG2 cells at 1 uM incubated for 24 hrs Western blot analysis in presence of polyphyllin I; type: functional, cell-based
[35] = Cytotoxicity against human Bel7402 cells assessed as combination index at ED75 using 1:1 compound to polyphyllin I incubated for 24 hrs by MTT assay; type: functional, Bel-7402
[36] = Cytotoxicity against human Bel7402 cells assessed as combination index at ED50 using 1:1 compound to polyphyllin I incubated for 24 hrs by MTT assay; type: functional, Bel-7402
[37] = Cytotoxicity against human HepG2 cells assessed as combination index at ED90 using 1:1 compound to polyphyllin I incubated for 24 hrs by MTT assay; type: functional
[38] = Cell cycle arrest in human HepG2 cells assessed as accumulation at G1 phase at 1 uM after 24 hrs by propidium iodide staining-based flow cytometry in presence of PPI (reference value: 55.62%); type: functional
[39] = Cytotoxicity against human HepG2 cells assessed as combination index at ED30 using 1:1 compound to polyphyllin I incubated for 24 hrs by MTT assay; type: functional
HepG2 [40] = assay: Induction of nuclear fragmentation in human HepG2 cells at 0.5 uM after 24 hrs by Hoechst 33258 staining-based fluorescence microscopic analysis in presence of polyphyllin I; type: functional, cell-based
[41] = Cell cycle arrest in human HepG2 cells assessed as accumulation at S phase at 1 uM after 24 hrs by propidium iodide staining-based flow cytometry(reference value: 42.33%); type: functional
HepG2 [42] = assay: Induction of Bax translocation from cytosol to mitochondria in human HepG2 cells by Western blot analysis in presence of polyphyllin I; type: functional, cell-based
HepG2 [43] = assay: Change in PCNA mRNA level in human HepG2 cells at 1 uM incubated for 24 hrs by RT-PCR analysis in presence of polyphyllin I relative to polyphyllin I alone treatment; type: functional, cell-based
[44] = Induction of apoptosis in human HepG2 cells assessed as upregulation of p53 mRNA level at 1 uM incubated for 24 hrs by RT-PCR analysis in presence of polyphyllin I; type: functional, cell-based
HepG2 [45] = assay: Change in PCNA mRNA level in human HepG2 cells at 1 uM incubated for 24 hrs by RT-PCR analysis in presence of polyphyllin I relative to formosanin C alone treatment; type: functional, cell-based
[46] = Cell cycle arrest in human HepG2 cells assessed as accumulation at G2 phase at 1 uM after 24 hrs by propidium iodide staining-based flow cytometry(reference value: 2.04%); type: functional
[47] = Induction of apoptosis in human HepG2 cells assessed as upregulation of p53 level at 1 uM incubated for 24 hrs by Western blot analysis in presence of polyphyllin I; type: functional, cell-based

With `C[C@@H]1CC[C@@]2(OC1)O[C@H]1C[C@H]3[C@@H]4CC=C5C[C@@H](O[C@@H]6O[C@H](CO)[C@@H](O[C@@H]7O[C@@H](C)[C@H](O[C@@H]8O[C@@H](C)[C@H](O)[C@@H](O)[C@H]8O)[C@@H](O)[C@H]7O)[C@H](O)[C@H]6O[C@@H]6O[C@@H](C)[C@H](O)[C@@H](O)[C@H]6O)CC[C@]5(C)[C@H]4CC[C@]3(C)[C@H]1[C@@H]2C` [PENNOGENIN RAHAMNOSYL CHACOTRIOSIDE] the Activity [1] was “Active”, the Activity (HepG2 [2]) was “Active” and the Activity [3] was “Active”. The Activity (HepG2 [4]) was “Active”, the Activity (HepG2 [5]) was 40.6% and the Activity (HepG2 [6]) was “Active”. The Activity (HepG2 [7]) was “Active”, the Activity (HepG2 [8]) was “Active” and the Activity (HepG2 [9]) was “Active”. The CI [10] was 0.56, the Activity (HepG2 [11]) was 6.96% and the Activity (HepG2 [12]) was “Active”. For the same compound, the IC50 [13] was 4.36 µM, the Activity [14] was 60.9% and the Activity (HepG2 [15]) was “Active”. The Activity (HepG2 [16]) was “Active”, the Activity (HepG2 [17]) was “Active” and the CI [18] was 0.67. For the same compound, the Activity (HepG2 [19]) was “Active”, the Activity [20] was “Active” and the Activity [21] was “Active”. The Activity [22] was 28.7%, the Activity (HepG2 [23]) was 32.6% and the Activity (HepG2 [24]) was 7.52%. The Activity [25] was “Active”, the Activity (HepG2 [26]) was “Active” and the CI [27] was 0.46. The Activity (HepG2 [28]) was “Active”, the IC50 [29] was 3.76 µM and the CI [30] was 0.58. For the same compound, the Activity (HepG2 [31]) was “Active”, the Activity [32] was “Active” and the Activity [33] was 2.63%. For the same compound, the Activity (HepG2 [34]) was “Active”, the CI [35] was 0.52 and the CI [36] was 0.58. For the same compound, the CI [37] was 0.54, the Activity [38] was 68.7% and the CI [39] was 0.62. For the same compound, the Activity (HepG2 [40]) was “Active”, the Activity [41] was 36.4% and the Activity (HepG2 [42]) was “Active”. The Activity (HepG2 [43]) was “Active”, the Activity [44] was “Active” and the Activity (HepG2 [45]) was “Active”. The Activity [46] was 2.74% and the Activity [47] was “Active”.

From ChEMBL document CHEMBL3856260, “A synergistic antitumor effect of polyphyllin I and formosanin C on hepatocarcinoma cells” (Bioorg Med Chem Lett, 2016)
